The first assay has as its target T1, indoleamine 2,3-dioxygenase (IDO) (Homo sapiens, UniProt P14902).
T1 construct: host or cells: HeLa cells, IDO induced with IFNγ (25 ng/mL)
Nature of the assay: HeLa cell-based indoleamine 2,3-dioxygenase (IDO) assay (IFNγ-induced kynurenine production). As to conditions: Tables 3-7; compounds shown only as drawings; read-out: Potency (IDO IC50). Here is the method: Assessment of inhibitor activity in HeLa cell-based indoleamine 2,3-dioxygenase (IDO) assay.
HeLa (ATCC® CCL-2) cells were obtained from the ATCC® and cultured in Dulbecco's Modified Eagle Medium supplemented with 4.5 g/L glucose, […] (#10-013-CV, Corning), 2 mM L-alanyl-L-glutamine dipeptide (#35050-061, Gibco), 100 U/mL penicillin, 100 μg/mL streptomycin (#SV30010, HyClone) and 10% fetal bovine serum (#SH30071.03 HyClone). Cells were maintained in a humidified incubator at 37° C. in 5% CO2.
IDO activity was assessed as a function of kynurenine production as follows: HeLa cells were seeded in a 96-well culture plate at a density of 5,000 cells/well and allowed to equilibrate overnight. After 24 hours, the media was aspirated and replaced with media containing IFNγ (#285-IF/CF, R&D Systems) at a final concentration of 25 ng/mL. A serial dilution of each test compound was added to the cells in a total volume of 200 μL of culture medium. After a further 48 hour incubation, 170 μL of supernatant was transferred from each well to a fresh 96-well plate. 12.1 μL of 6.1N trichloroacetic acid (#T0699, Sigma-Aldrich) was added to each well and mixed, followed by incubation at 65° C. for 20 minutes to hydrolyze N-formylkynurenine, the product of indoleamine 2,3-dioxygenase, to kynurenine. The reaction mixture was then centrifuged for 10 mins at 500×g to sediment the precipitate. 100 μL of the supernatant was transferred from each well to a fresh 96-well plate. 100 μl of 2% (w/v) p-dimethylaminobenzaldehyde (#15647-7, Sigma-Aldrich) in acetic acid (#A6283, Sigma-Aldrich) was added to each well mixed and incubated at room temperature for 20 mins. Kynurenine concentrations were determined by measuring absorbance at 480 nm and calibrating against an L-kynurenine (#K8625, Sigma-Aldrich) standard curve using a SPECTRAMAX® M2e microplate reader (Molecular Devices). The percentage activity at each inhibitor concentration was determined and IC50 values assessed using nonlinear regression.
Activity for compounds described herein is provided in Tables 3-7, wherein potency levels are provided as follows: (Potency: IDO IC50: A<0.1 μM; B<1 μM; C<10 μM)
T1 sequence (P14902 whole entry): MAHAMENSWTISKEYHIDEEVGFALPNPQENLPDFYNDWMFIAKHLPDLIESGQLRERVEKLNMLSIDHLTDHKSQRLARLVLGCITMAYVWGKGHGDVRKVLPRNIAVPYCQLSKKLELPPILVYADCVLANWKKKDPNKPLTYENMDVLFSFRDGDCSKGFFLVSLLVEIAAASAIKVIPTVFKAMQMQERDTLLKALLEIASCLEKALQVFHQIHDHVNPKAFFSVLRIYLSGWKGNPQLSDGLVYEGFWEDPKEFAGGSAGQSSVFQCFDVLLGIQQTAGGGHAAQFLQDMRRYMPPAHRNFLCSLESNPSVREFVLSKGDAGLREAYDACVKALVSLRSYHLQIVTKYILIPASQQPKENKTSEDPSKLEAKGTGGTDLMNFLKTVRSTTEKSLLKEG
T2 sequence (P14902 whole entry): as above
As for `O=C(Nc1ccc(Cl)cc1)[C@H]1CC[C@@H](Cc2ccccc2)CC1`, the IC50 was below 2 µM.

With `O=C(Nc1ccc(Cl)cc1)[C@H]1CC[C@H](Cc2ccccc2)CC1`, the IC50 is below 2 µM. On the same count and under the same terms, as for `N#Cc1ccc(NC(=O)[C@H]2CC[C@@H](Cc3ccccc3)CC2)cc1`, the figure is below 2 µM. On to `N#Cc1ccc(NC(=O)[C@H]2CC[C@H](Cc3ccccc3)CC2)cc1`, for which the IC50 was below 2 µM.

For `O=C(Nc1ccc(F)cc1)[C@H]1CC[C@@H](Cc2ccccc2)CC1`, the IC50 is below 2 µM. For `O=C(Nc1ccc(F)cc1)[C@H]1CC[C@H](Cc2ccccc2)CC1`, the IC50 was below 2 µM. On to `COc1ccc(NC(=O)[C@H]2CC[C@@H](Cc3ccccc3)CC2)cc1`, for which the IC50 was below 2 µM.

For `COc1ccc(NC(=O)[C@H]2CC[C@H](Cc3ccccc3)CC2)cc1`, the IC50 was below 2 µM.

Consider `COc1ccc(C2CCC(CC(=O)NCc3ccccc3)CC2)cc1` (stereo not drawn), for which the IC50 is below 2 µM. With `COc1ccc([C@H]2CC[C@@H](CC(=O)NCc3ccccc3)CC2)cc1`, the IC50 was below 0.25 µM. With `N#Cc1ccc(C(=O)NC[C@H]2CC[C@@H](c3ccccc3)CC2)cc1`, the IC50 was below 0.25 µM.

On to `O=S(=O)(NC[C@H]1CC[C@@H](c2ccccc2)CC1)c1ccc(Cl)cc1`, for which the IC50 was below 0.25 µM. Regarding `N#Cc1cccc(C(=O)NC[C@H]2CC[C@@H](c3ccccc3)CC2)c1`, the IC50 was below 0.05 µM. In the case of `O=C(c1ccc(Cl)cc1)N1CCC(Cc2ccccc2)CC1`, the IC50 was below 2 µM. For the compound `O=C(NC[C@H]1CC[C@@H](c2ccccc2)CC1)c1ccc(Cl)cc1`, the IC50 is below 0.25 µM. Take `O=C(c1cccc(Cl)c1)N1CCC(Cc2ccccc2)CC1`: the IC50 is below 2 µM. For `O=C(NC[C@H]1CC[C@@H](c2ccccc2)CC1)c1cccc(Cl)c1`, the IC50 is below 0.05 µM.

Regarding `O=C(NC[C@H]1CC[C@@H](c2ccccc2)CC1)c1ccc(F)cc1`, the IC50 was below 0.05 µM.

Regarding `COc1ccc([C@H]2CC[C@@H](CCNc3ccc(Cl)cc3)CC2)cc1`, the IC50 was below 0.25 µM. As to `COc1ccc([C@H]2CC[C@H](CCNc3ccc(Cl)cc3)CC2)cc1`, the IC50 was below 2 µM. On the same count and under the same terms, as for `O=C(Nc1ccc(Cl)cc1)O[C@H]1CC[C@@H](c2ccccc2)C1`, the figure is below 2 µM; as for `O=C(Nc1ccc(F)cc1)OC[C@H]1CC[C@@H](c2ccccc2)CC1`, below 2 µM; as for `O=C(Nc1ccc(F)cc1)N[C@H]1CC[C@H](c2ccccc2)CC1`, below 0.05 µM. Still for that read-out and setting: for `O=C(Nc1cccc(Cl)c1)N[C@H]1CC[C@@H](c2ccccc2)CC1` the value was below 0.25 µM; for `O=C(Nc1ccc(Cl)cc1)N[C@H]1CC[C@H](c2ccccc2)CC1`, below 0.05 µM.

As to `O=C(Cc1ccc(Cl)cc1)N[C@H]1CC[C@@H](c2ccccc2)CC1`, the IC50 is below 2 µM. As for `O=C(Nc1cccc(Cl)c1)N[C@H]1CC[C@H](c2ccccc2)CC1`, the IC50 is below 0.05 µM. For the compound `O=C(Nc1ccc(Cl)cc1)N[C@H]1CC[C@@H](c2ccccc2)CC1`, the IC50 was below 0.25 µM. In the case of `O=C(Cc1cccc(Cl)c1)N[C@H]1CC[C@H](c2ccccc2)CC1`, the IC50 was below 0.05 µM. Consider `O=C(Nc1ccc(Cl)cc1)N1CCC(Oc2ccccc2)CC1`, for which the IC50 was below 2 µM.

`O=C(Nc1ccc(Cl)cc1)C1CCC(Oc2ccccc2)CC1` (stereo not drawn): the IC50 was below 0.25 µM. Turning to `COc1ccc([C@H]2CC[C@H](NC(=O)Cc3ccc(Cl)cc3)CC2)cc1`, the IC50 is below 0.25 µM. As to `O=S(=O)(CC1CCC(c2ccnc3ccccc23)CC1)Nc1ccc(Cl)cc1` (stereo not drawn), the IC50 is below 0.05 µM. In the case of `COc1ccc(C2CCC(CC(Nc3ccc(F)cc3)C(F)(F)F)CC2)cc1` (stereo not drawn), the IC50 was below 0.05 µM. On the same count and under the same terms, as for `COc1ccc(C2CCC(CC(Nc3ccc(Cl)cc3)C(F)(F)F)CC2)cc1` (stereo not drawn), the figure is below 0.05 µM. As to `N#Cc1ccc(CC(=O)N[C@H]2CC[C@H](c3ccccc3)CC2)cc1`, the IC50 was below 0.25 µM. As to `CC(C(=O)N[C@H]1CC[C@H](c2ccccc2)CC1)c1ccc(C#N)cc1` (stereo partly drawn), the IC50 is below 0.05 µM. Still for that read-out and setting: as for `O=C(Cc1ccc(Cl)cc1)N[C@H]1CC[C@H](c2ccnc3ccccc32)CC1`, the figure is below 0.25 µM.

Another assay has as its target T2, human IDO1 (Homo sapiens, UniProt P14902).
T2 construct: expressed in transfected cells
The assay can be described thus: IDO inhibition assay in HEK293 cells stably expressing human IDO1 (kynurenine, Ehrlich reagent). It counts as cell-based. The note with it: 20 hours incubation, read-out: HEK Human IDO-1 Bio Activity. Here is the method: They were cultured in medium (DMEM with 10% FBS) containing 1 mg/ml G418 for two weeks.
The human IDO1/HEK293 cells were seeded at 10,000 cells per 50 μL per well with RPMI/phenol red free media contains 10% FBS in a 384-well black wall clear bottom tissue culture plate (Matrix Technologies LLC) 100 nL of certain concentration of compound was then added to each well using ECHO liquid handling systems. The cells were incubated for 20 hours in 37° C. incubator with 5% CO2.
The compound treatments were stopped by adding trichloroacetic acid (Sigma-Aldrich) to a final concentration at 0.2%. The cell plate was further incubated at 50° C. for 30 minute. The equal volume supernatant (20 μL) and 0.2% (w/v) Ehrlich reagent (4-dimethylaminobenzaldehyde, Sigma-Aldrich) in glacial acetic acid were mixed in a new clear bottom 384-well plate. This plate was then incubated at room temperature for 30 minute. The absorbance at 490 nm was measured on Envision plate reader.
Consider `Cc1c(C2CCC(C(C)NC(=O)c3ccc(Cl)cc3)CC2)ccnc1F` (single isomer, unassigned) [Example 158b, 4-chloro-N-(1-(4-(2-fluoro-3-methylpyridin-4-yl)cyclohexyl)ethyl)benzamide], for which the IC50 was below 0.05 µM.

On to `Cc1c(C2CCC(C(C)NC(=O)c3ccc(Cl)cc3)CC2)ccnc1F` (single isomer, unassigned) [Example 158c, 4-chloro-N-(1-(4-(2-fluoro-3-methylpyridin-4-yl)cyclohexyl)ethyl)benzamide], for which the IC50 is below 0.05 µM. As to `Cc1c(C2CCC(C(C)NC(=O)c3ccc(Cl)cc3)CC2)ccnc1F` (single isomer, unassigned) [Example 158d, 4-chloro-N-(1-(4-(2-fluoro-3-methylpyridin-4-yl)cyclohexyl)ethyl)benzamide], the IC50 is below 0.05 µM. In the case of `Cc1c(C2CCC(C(C)NC(=O)c3ccc(Cl)cc3)CC2)ccnc1F` (single isomer, unassigned) [Example 158e, 4-chloro-N-(1-(4-(2-fluoro-3-methylpyridin-4-yl)cyclohexyl)ethyl)benzamide], the IC50 was below 2 µM. For the compound `Cc1nccc(C2CCC(C(C)NC(=O)c3ccc(Cl)cc3)CC2)c1C` (single isomer, unassigned) [Example 159b, 4-chloro-N-(1-(4-(2,3-dimethylpyridin-4-yl)cyclohexyl)ethyl)benzamide], the IC50 is below 0.25 µM. As for `Cc1nccc(C2CCC(C(C)NC(=O)c3ccc(Cl)cc3)CC2)c1C` (single isomer, unassigned) [Example 159c, 4-chloro-N-(1-(4-(2,3-dimethylpyridin-4-yl)cyclohexyl)ethyl)benzamide], the IC50 is below 0.05 µM. Turning to `Cc1nccc(C2CCC(C(C)NC(=O)c3ccc(Cl)cc3)CC2)c1C` (single isomer, unassigned) [Example 159d, 4-chloro-N-(1-(4-(2,3-dimethylpyridin-4-yl)cyclohexyl)ethyl)benzamide], the IC50 is below 0.05 µM. The same measure, in the same setting: for `Cc1nccc(C2CCC(C(C)NC(=O)c3ccc(Cl)cc3)CC2)c1C` (single isomer, unassigned) [Example 159e, 4-chloro-N-(1-(4-(2,3-dimethylpyridin-4-yl)cyclohexyl)ethyl)benzamide] the value was below 2 µM; for `Cc1cnccc1C1CCC(C(C)NC(=O)c2ccc(Cl)cc2)CC1` (single isomer, unassigned) [Example 160b, 4-chloro-N-(1-(4-(3-methylpyridin-4-yl)cyclohexyl)ethyl)benzamide], below 2 µM.

On to `Cc1cnccc1C1CCC(C(C)NC(=O)c2ccc(Cl)cc2)CC1` (single isomer, unassigned) [Example 160c, 4-chloro-N-(1-(4-(3-methylpyridin-4-yl)cyclohexyl)ethyl)benzamide], for which the IC50 is below 2 µM. Consider `Cc1cnccc1C1CCC(C(C)NC(=O)c2ccc(Cl)cc2)CC1` (single isomer, unassigned) [Example 160d, 4-chloro-N-(1-(4-(3-methylpyridin-4-yl)cyclohexyl)ethyl)benzamide], for which the IC50 is below 0.25 µM. Same read-out and setting: as for `Cc1cnccc1C1CCC(C(C)NC(=O)c2ccc(Cl)cc2)CC1` (single isomer, unassigned) [Example 160e, 4-chloro-N-(1-(4-(3-methylpyridin-4-yl)cyclohexyl)ethyl)benzamide], the figure is below 0.05 µM.

Regarding `CC(NC(=O)c1ccc(Cl)cc1)C1CCC(c2ccncc2F)CC1` (single isomer, unassigned) [Example 161a, 4-chloro-N-(1-(4-(3-fluoropyridin-4-yl)cyclohexyl)ethyl)benzamide], the IC50 was below 2 µM.

For the origin of these results see patent publication US10206893B2, “Immunoregulatory agents” (Flexus Biosciences, Inc., priority 2014, dated 2019).
